What was measured:
[1] = Pharmacokinetic study of transdermal APAP in rats; assay type: in vivo, rats (Sprague-Dawley); details: 100 mg APAP enhancer-containing transdermal system vs regular 100 mg patch, n=6 per group (FIG. 3)
Description: Methodology: Anesthetized (15 mg/kg pentobarbital sodium i.p.) rats (Sprague-Dawley, 500-600 g), were placed on their back, the abdominal hair was trimmed off, and the skin was washed gently with distilled water. Anesthesia was maintained with 0.1 ml pentobarbital (15 mg/ml) along the experiment. […] Blood samples were taken from the tail vein into heparanized tubes at t=0, 1, 2, 3, 4, 5, 7 and 9 hours from the time of application.
After centrifugation, plasma were analyzed for APAP by EMIT kit (Serum Tox EIA Assay, Diagnostic Reagents, Inc.).

[2] = cited from earlier work
[3] = male, CD1 hairless, mouse, 24 h, pH 7.4
[4] = single application of hydrogel disc system to skin; neonates with apnea; cited from earlier work

CC(=O)Nc1ccc(O)cc1 [APAP, Acetaminophen]
systemic penetration (plasma APAP) [1]: significant increase in penetration | Volume of distribution ([2]; in vivo): 0.95 L/kg | binding to plasma proteins ([2]; in vivo): 20% | effective plasma concentrations ([2]; in vivo): 10 to 20 µg/mL | plasma elimination half life ([2]; similar in children and adults): about 2 hours | drug recovered in the urine ([2]; therapeutic doses): 90-100% | recovered in urine conjugated with cysteine ([2]; therapeutic doses): about 2% | recovered in urine conjugated with glucuronic acid ([2]; therapeutic doses): about 60% | recovered in urine conjugated with sulfuric acid ([2]; therapeutic doses): about 35% | unchanged APAP in urine ([2]; therapeutic doses): about 2%

O=C(O)Cc1ccccc1Nc1c(Cl)cccc1Cl [diclofenac]
higher dose of diclofenac delivered vs regular application of Voltaren Emulgel [3]: 12 fold

Cn1c(=O)c2[nH]cnc2n(C)c1=O [theophylline]
duration of therapeutic concentrations [4]: up to 3 days

— US20030170296A1, “Transdermal drug delivery system” (priority 2000, published 2003)
